Laboratory results from patent publication US6806276B2, “2-oxoquinoline compounds and pharmaceutical uses thereof” (Japan Tobacco Inc., priority 1999, dated 2004).
Counter-ions that a name gives are not always drawn. Like-named read-outs stand apart in the source and are kept apart here.

Assays:
[1] = test system: carrageenin-induced paw edema; test: Carrageenin-induced paw edema model (in vivo); parameters: species or system C57BL/6J mice; conditions: mice, oral in olive oil 1 hour before carrageenin, paw volume 3 hours later
Method: [2] Carrageenin-induced paw edema model (in vivo)
C57BL/6J mice (6 to 8 weeks of age) were used. […] After one hour of the administration, 50 μl of 1% solution of carrageenin in normal saline was administered intradermally at foot pad of the right hind paw. Three hours later, the volume of the right hind paw was measured and compared with the initial volume.

[2] = target: T1, human peripheral type cannabinoid receptor (hCB2) (Homo sapiens, UniProt P34972); test: Binding assay (in vitro), [3H]Win55212-2 displacement, membrane fractions of human CB2-CHO; conditions: for Ki: hCB2 expressed in CHO cells, [3H]Win55212-2 2 nM, 30° C. 90 minutes; for C/S (Ki central type receptors / Ki peripheral type receptors): indicator of selectivity for peripheral type receptors
T1 construct: expressed in transfected cells; host or cells: CHO cells
T1 sequence (P34972 whole entry): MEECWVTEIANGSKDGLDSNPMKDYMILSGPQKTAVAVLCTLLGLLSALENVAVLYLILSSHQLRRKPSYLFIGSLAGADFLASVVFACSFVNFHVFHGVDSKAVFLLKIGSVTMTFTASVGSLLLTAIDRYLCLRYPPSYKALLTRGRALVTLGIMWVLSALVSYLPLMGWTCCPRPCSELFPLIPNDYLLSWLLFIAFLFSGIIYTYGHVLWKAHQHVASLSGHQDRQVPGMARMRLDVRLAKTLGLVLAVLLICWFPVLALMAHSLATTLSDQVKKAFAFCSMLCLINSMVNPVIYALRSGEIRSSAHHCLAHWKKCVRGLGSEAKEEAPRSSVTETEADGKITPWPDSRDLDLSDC
Method: (§1) Membrane fractions of human central type cannabinoid receptor (human CB1-CHO, hereinafter called hCB1) and human peripheral type cannabinoid receptor (human CB2-CHO, hereinafter called hCB2) expressed in CHO cells were used as samples. The reference material (hCB1: 20 μg/ml, hCB2: 5 μg/ml), labeled ligand ([^3H]Win55212-2, 2 nM) and unlabeled ligand Win55212-2 or test compound were added to a 24-well round bottom plate, and the plate was incubated at 30° C. for 90 minutes. 50 mM Tris-HB55 containing 0.2% BSA was used as an assay buffer. After incubation, the mixture was filtered (Packard, Unifilter 24GF/B) and dried, and then a scintillation solution (Packard, Microsint-20) was added thereto to determine the radioactivity of the sample (Packard, Top count A9912V). Nonspecific binding was determined by the addition of excessive amount of Win55212-2 (10 μM), and specific binding was calculated by subtracting the nonspecific binding from total binding determined by the addition of the labeled ligand only. The test compound was dissolved in DMSO to make the final concentration in DMSO to be 0.1%. IC50 value was determined from the proportion of the bound test compound in the specific binding, and K1 value of the test compound was calculated from the ICso value and Kd value of [^3H]Win55212-2. K1 value for the central type receptors/K1 value for peripheral type receptors (C/S) was also calculated as an indicator of the selectivity of the test compound for peripheral type receptors.

[3] = target: T2, human central type cannabinoid receptor (hCB1) (Homo sapiens, UniProt P21554); test: Binding assay (in vitro), [3H]Win55212-2 displacement, membrane fractions of human CB1-CHO; conditions: hCB1 expressed in CHO cells, [3H]Win55212-2 2 nM, 30° C. 90 minutes
T2 construct: expressed in transfected cells; host or cells: CHO cells
T2 sequence (P21554 whole entry): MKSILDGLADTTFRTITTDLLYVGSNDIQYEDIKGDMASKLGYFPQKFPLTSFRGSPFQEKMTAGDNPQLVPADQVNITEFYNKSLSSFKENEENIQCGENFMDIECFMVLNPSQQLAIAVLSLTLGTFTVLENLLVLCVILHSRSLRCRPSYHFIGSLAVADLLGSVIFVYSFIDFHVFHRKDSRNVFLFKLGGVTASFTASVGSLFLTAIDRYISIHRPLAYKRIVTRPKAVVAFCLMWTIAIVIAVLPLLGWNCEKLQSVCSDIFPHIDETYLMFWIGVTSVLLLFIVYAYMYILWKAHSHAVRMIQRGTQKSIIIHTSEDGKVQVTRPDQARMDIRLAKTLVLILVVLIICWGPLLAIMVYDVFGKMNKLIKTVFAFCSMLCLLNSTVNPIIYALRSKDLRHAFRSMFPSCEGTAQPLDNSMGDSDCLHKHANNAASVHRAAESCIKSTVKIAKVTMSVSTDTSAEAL
Method: as §1

[4] = Ki value Peripheral type receptor (S)
[5] = read-out: Ki value Central type receptor (C)
[6] = read-out: Ki value Peripheral type receptor (S)
[7] = Ki value Central type receptor (C)

Structure (SMILES)	ED50 [1]	Ki [2, 4]	C/S (Ki central type receptors / Ki peripheral type receptors) ([2]; hydrochloride)	Ki [3, 5]	ED60 [1]	Ki [2, 6]	C/S (Ki central type receptors / Ki peripheral type receptors) [2]	Ki [3, 7]
CCCCOc1c(OC)ccc2cc(C(=O)NCCc3ccncc3)c(=O)[nH]c12 [Example 3-17, 8-butoxy-7-methoxy-2-oxo-1,2-dihydroquinoline-3-carboxylic acid (2-pyridine-4-ylethyl)amide hydrochloride]	1.39 mg/kg; p.o.	0.23 nM	867	199 nM				
CCCCCOc1c(OC)ccc2cc(C(=O)NCc3ccc4c(c3)OCO4)c(=O)[nH]c12 [Example 3-5, 7-Methoxy-2-oxo-8-pentyloxy-1,2-dihydroquinoline-3-carboxylic acid (3,4-methylenedioxybenzyl)amide]	<0.10 mg/kg; p.o.			3440 nM				
CCCOc1c(OC)ccc2cc(C(=O)NCCc3ccncc3)c(=O)[nH]c12 [Example 3-26, 7-methoxy-2-oxo-8-propoxy-1,2-dihydroquinoline-3-carboxylic acid (2-pyridine-4-ylethyl)amide]				648 nM	1.32 mg/kg; p.o.	0.23 nM	2817	
CCCCCOc1c(OC)ccc2cc(C(=O)NCCc3ccc(Cl)cc3)c(=O)[nH]c12 [Example 3-22, 7-methoxy-2-oxo-8-pentyloxy-1,2-dihydroquinoline-3-carboxylic acid [2-(4-chlorophenyl)ethyl]amide]	0.76 mg/kg; p.o.	0.2 nM					675	135 nM
CCCOc1c(OC)ccc2cc(C(=O)NCCc3ccc(F)cc3)c(=O)[nH]c12 [Example 3-27, 7-methoxy-2-oxo-8-propoxy-1,2-dihydroquinoline-3-carboxylic acid [2-(4-fluorophenyl)ethyl]amide]				336 nM	0.53 mg/kg; p.o.	0.021 nM	15990	
CCCCOc1c(OC)ccc2cc(C(=O)NCCc3ccc(F)cc3)c(=O)[nH]c12 [Example 3-15, 8-butoxy-7-methoxy-2-oxo-1,2-dihydroquinoline-3-carboxylic acid [2-(4-fluorophenyl)ethyl]amide]	0.41 mg/kg; p.o.	0.016 nM		249 nM			15580	
CCCCCOc1c(OC)ccc2cc(C(=O)NCc3ccc(F)cc3)c(=O)n(C)c12 [Example 3-40, 1-methyl-7-methoxy-2-oxo-8-pentyloxy-1,2-dihydroquinoline-3-carboxylic acid (4-fluorobenzyl)amide]		2.13 nM		703 nM	1.19 mg/kg; p.o.		330	
CCCCCOc1c(OC)ccc2cc(C(=O)NCCc3ccncc3)c(=O)n(C)c12 [Example 3-37, 1-methyl-7-methoxy-2-oxo-8-pentyloxy-1,2-dihydroquinoline-3-carboxylic acid (2-pyridine-4-ylethyl)amide]		0.75 nM			0.63 mg/kg; p.o.		104	78 nM
CCCCCOc1c(OC)ccc2cc(C(=O)NCCN3CCOCC3)c(=O)n(C)c12 [Example 3-38, 1-methyl-7-methoxy-2-oxo-8-pentyloxy-1,2-dihydroquinoline-3-carboxylic acid (2-morpholinoethyl) amide]		0.085 nM		935 nM	2.24 mg/kg; p.o.		11002	
